Laboratory results published in patent US8410309B2, “Phenoxy carboxylic acid compounds and compositions for delivering active agents” (Emisphere Technologies, Inc., priority 1999, dated 2013).
Several values for one entry are separate records, joined by “and”; a condition that tells them apart may be missing. Identical values can stand only once. Marks after values point to notes of the source that are not given here.

Legend:
[1] = Low molecular weight heparin (LMWH) oral/intracolonic delivery, plasma LMWH by anti-Factor Xa assay; assay type: in vivo, Sprague-Dawley rats; settings: IC, rats, delivery agent compound 50 mg/kg, LMWH 750 IU/kg, 1 ml/kg
Method: Oral dosing (PO) and/or intracolonic (IC) compositions containing a delivery agent compound and low molecular weight heparin (LMWH) were prepared in 25% aqueous propylene glycol. […] Typically, the delivery agent compound and LMWH (Parnaparin, 91 IU/mg average molecular weight about 5,000, available from Opocrin, Modena, Italy) (typically 90-105 IU/mg, average molecular weight about 5,000) were mixed by vortex as dry powders. This dry mixture was dissolved in 25% v/v aqueous propylene glycol, vortexed, and placed in a sonicator (37° C.) to produce a clear solution. The pH was adjusted to about 7 (6.5-8.5) with 2N aqueous NaOH. The dosing solution was sonicated to produce a clear solution. The final volume was adjusted to 3.0 ml.
(§1) The typical dosing and sampling protocols were as follows. […] The dosing solution was expressed slowly into the colon by pressing the syringe plunger.
Citrated blood samples were collected by cardiac puncture following the administration of ketamine (88 mg/kg), typically at 0.5, 1.0, 2.0, 3.0 and 4.0 hours after dosing. LMWH absorption was verified by an increase in plasma LMWH measured by the anti-Factor Xa assay CHROMOSTRATE™ Heparin anti-Xa assay (available from Organon Teknika Corporation, Durham, N.C.). […] The peak of these mean plasma LMWH concentrations is reported below in Table 5.

[2] = Heparin oral/intracolonic delivery, clotting time by activated partial thromboplastin time (APTT); assay type: in vivo, Sprague-Dawley rats; settings: rats, baseline about 20 seconds
Method: Oral gavage (PO) and/or intracolonic (IC) dosing solutions containing a delivery agent compound and heparin sodium USP were prepared in 25% aqueous propylene glycol. […] This dry mixture was dissolved in 25% v/v aqueous propylene glycol, vortexed, and placed in a sonicator (about 37° C.). The pH was adjusted to about 7 (6.5 to 8.5) with aqueous NaOH (2N). The dosing solution was sonicated to produce a clear solution. The final volume was adjusted to about 3.0 ml.
as §1
Citrated blood samples were collected by cardiac puncture following the administration of ketamine (88 mg/kg), typically at 0.25, 0.5, 1.0 and 1.5 hours after dosing. Heparin absorption was verified by an increase in clotting time measured by the activated partial thromboplastin time (APTT) according to the method of Henry, J. B., Clinical Diagnosis and Management by Laboratory Methods, Philadelphia, Pa., W.B. Saunders (1979). Previous studies indicated baseline values of about 20 seconds.

[3] = Salmon calcitonin (sCT) oral delivery, serum sCT by EIA; settings: rats, delivery agent compound dose 150 mg/kg, sCT dose 30 μg/kg
[4] = Daptomycin oral delivery, plasma daptomycin by HPLC; assay type: in vivo, Sprague-Dawley rats; settings: rats, delivery agent compound dose 200 mg/kg, daptomycin dose 50 mg/kg, volume dose 1 mL/kg
Method: Dosing solutions containing a delivery agent compound and daptomycin (Cubist Pharmaceuticals, Cambridge, Mass.) were prepared in 0.9% normal saline. […] This mixture was vortexed and placed in a sonicator (about 37° C.). The pH was adjusted to about 7.0-7.5 with aqueous HCl or NaOH. […] The mixture was vortexed to produce a uniform solution, also using sonication if necessary. The delivery agent compound solution was mixed with daptomycin from a stock solution (200 mg daptomycin/mL in 0.9% normal saline and the pH adjusted, if necessary, to between 6.0-7.0 with NaOH or HCl). The stock solution was stored frozen (−20° C.) wrapped in foil, then thawed and warmed gradually to about 25° C. before using. The delivery agent-daptomycin mixture was vortexed at low speed to produce a uniform solution. The pH was adjusted to about 7.0-7.5 with aqueous NaOH. The solution was then diluted with 0.9% normal saline to the desired volume (usually 2.0 ml) and concentration and stored wrapped in foil before use.
(§2) The typical dosing and sampling protocols were as follows.
Heparinized rat blood samples were collected via the ventral tail artery, typically at 0.25, 0.5, 0.75, 1.0, 2.0, and 4.0 hours after dosing, and stored on ice. Blood samples were then spun (centrifuged) at 11,500 rpm for 4 minutes at 4° C. to obtain the plasma (supernatant), which was stored at −70° C. The plasma daptomycin concentrations were measured by isocratic reversed phase HPLC, keeping samples at 4° C. during analysis. Blank plasma studies show baseline values of zero.
Daptomycin blood concentrations results from the individual animals in each dosage group were averaged for each time point.

[5] = Cromolyn oral delivery, serum cromolyn by HPLC; assay type: in vivo, Sprague-Dawley rats; settings: rats, delivery agent compound dose 200 mg/kg, cromolyn dose 25 mg/kg, in µg/mL (unit assumed)
Method: Dosing solutions containing a delivery agent compound (prepared as in Example 1) and cromolyn, disodium salt (cromolyn)(from Sigma Chemical Co., St. Louis, Mo.) were prepared in deionized water. […] This mixture was vortexed and placed in a sonicator (about 37° C.). The pH was adjusted to about 7-7.5 with aqueous NaOH. […] The mixture was vortexed to produce a uniform solution, also using sonication and heat if necessary. The delivery agent compound solution was mixed with cromolyn from a stock solution (175 mg cromolyn/ml in deionized water, pH adjusted, if necessary, with NaOH or HCl to about 7.0, stock solution stored frozen wrapped in foil, then thawed and heated to about 30° C. before using). The mixture was vortexed to produce a uniform solution, also using sonication and heat if necessary. The pH was adjusted to about 7-8 with aqueous NaOH. The solution was then diluted with water to the desired volume (usually 2.0 ml) and concentration and stored wrapped in foil before use.
as §2
Blood samples were collected via the tail artery, typically at 0.25, 0.5, 1.0 and 1.5 hours after dosing. Serum cromolyn concentrations were measured by HPLC. Samples were prepared as follows: 100 μl serum was combined with 100 μl 3N HCl and 300 μl ethyl acetate in an eppendorf tube. The tube was vortexed for 10 minutes and then centrifuged for 10 minutes at 10,000 rpm. 200 μl ethyl acetate layer was transferred to an eppendorf tube containing 67 μl 0.1 M phosphate buffer. The tube was vortexed for 10 minutes and then centrifuged for 10 minutes at 10,000 rpm. […] Previous studies indicated baseline values of about zero.

[6] = Interferon oral delivery, serum IFN by immunoassay; assay type: in vivo, Sprague-Dawley rats; settings: rats, 1 ml/kg
Method: Dosing solutions of delivery agent compound and human interferon (IFN) were prepared in deionized water. […] This mixture was vortexed and placed in a sonicator (about 37° C.). The pH was adjusted to about 7.0 to 8.5 with aqueous NaOH. The mixture was vortexed to produce a uniform suspension or solution, also using sonication and heat if necessary.
as §2
Serum IFN concentrations were quantified using Cytoscreen Immunoassay Kit for human IFN-alpha (catalog # KHC4012 from Biosource International, Camarillo, Calif.). Previous studies indicated baseline values of about zero.

[7] = Recombinant human growth hormone (rhGH) oral delivery, serum rhGH by immunoassay; settings: oral gavage, rats, delivery agent compound 200 mg/kg, rhGH 3 mg/kg
[8] = Insulin oral delivery, serum human insulin by ELISA; settings: rats
Method: Oral dosing (PO) compositions of delivery agent compound and human zinc insulin (minimum 26 IU/mg available from Calbiochem—Novabiochem Corp, La Jolla, Calif.) were prepared in deionized water. […] The pH was adjusted to about 7 to 8.5 with NaOH or HCl. […] The final delivery agent compound dose, insulin dose and dose volume amounts are listed below in Table 8.
as §2
Serum insulin levels were determined with an Insulin ELISA Test Kit (Kit # DSL-10-1600 from Diagnostic Systems Laboratories, Inc., Webster, Tex.), modifying the standard protocol in order to optimize the sensitivity and linear range of the standard curve for the volumes and concentrations of the samples used in the present protocol. […] The five values for each time point were averaged and the results plotted as serum insulin concentration versus time.

[9] = Parathyroid hormone (PTH 1-34) oral/intracolonic delivery, serum PTH by radioimmunoassay; settings: rats, oral (PO); delivery agent compound dose 100 mg/kg, PTH dose 200 μg/kg, volume dose 1 ml/kg
Method: Oral gavage (PO) and/or intracolonic (IC) dosing solutions of delivery agent compound and human parathyroid hormone residues 1-34 (PTH) in deionized water were prepared. A solution of the compound was made either with the sodium salt of the delivery agent compound or by converting the free acid to its sodium salt.
The typical dosing and sampling protocols were as follows. Male Sprague-Dawley rats weighing between 200-250 g were fasted for 24 hours and administered ketamine (44 mg/kg) and chlorpromazine (1.5 mg/kg) 15 minutes prior to dosing and again as needed to maintain anesthesia. A dosing group of five animals was administered one of the dosing solutions. For oral gavage (PO), an 11 cm Rusch 8 French catheter was adapted to a 1 ml syringe with a pipette tip. The syringe was filled with dosing solution by drawing the solution through the catheter, which was then wiped dry. The catheter was placed down the esophagus leaving 1 cm of tubing past the incisors. The dosing solution was administered by pressing the syringe plunger. For intracolonic (IC) dosing, a 7.5 cm Rusch catheter tube (French 8 or 6) was adapted to a syringe with an Eppendorf pipette tip. The syringe was filled with the dosing solution by drawing the solution through the catheter tube. The catheter tube was wiped dry. K-Y jelly was applied to the tip, avoiding contact with the eye of the tube, and the tube was inserted into the colon through the anus until the tube was no longer visible. The dosing solution was injected by pressing the syringe plunger, and the tube was removed.
Previous studies indicated baseline values of about zero. Results from the animals in each group were averaged for each time point.

[10] = Insulin pulmonary delivery, serum insulin by ELISA, ratio to insulin-alone control; assay type: in vivo, Sprague-Dawley rats; settings: pulmonary, rats; volume 0.4 ml/kg, delivery agent compound 0.03 mg/kg, insulin 0.3 mg/kg (so in the source)
Method: Dosing compositions of delivery agent compound and human insulin in water were prepared. Typically, to 1.5 mg of delivery agent compound was added deionized water to bring the volume to 1.0 ml, and the solution was vortexed. […] The pH was adjusted to between about 7.0 to 8.5 with NaOH or HCl. […] The final delivery agent compound dose, insulin dose and volume dose amounts are listed below in Table 9.
The typical dosing and sampling protocols were as follows. […] A control group of five animals was dosed insulin alone. A tracheal instillator for rodents, equipped with light (available from Penn Century, Inc., Pittsburgh, Pa.) was filled with dosing solution and inserted down the throat until the needle went into the trachea (confirmed visually). The dosing solution was administered by pressing the plunger.
Blood samples from each animal were collected serially from the tail artery, typically at 5, 15, 30, 60 and 120 minutes after dosing. […] The ratio of the area under the curve (AUC) for the test group versus that of the control group is reported below. The ratio of the maximum serum insulin concentration (Cmax) for the test group versus that of the control group is also reported below.

[11] = IC (intracolonic), delivery agent compound 50 mg/kg, heparin 25 mg/kg, volume dose 1 ml
[12] = delivery agent compound 200 mg/kg, IFN 1 mg/kg
[13] = delivery agent compound 100 mg/kg, insulin 3 mg/kg, 0.5 ml/kg

| Mean plasma Cmax [daptomycin] ± SD [4] | Mean Peak serum [cromolyn] ± SD (SE) ([5]; volume dose 1 ml/kg) | Mean Peak Serum sCT (pg/ml ± SD) (SE) ([3]; dose volume 1 (ml)) | Mean Peak Serum [IFN] ± SD [6, 12] | Mean Peak Serum [PTH] (pg/mL) ± SD [9] | Structure (SMILES) | Mean Peak APTT ± SD [2, 11] | further results |
| --- | --- | --- | --- | --- | --- | --- | --- |
| 5070 ± 610 ng/mL | – | – | – | – | O=C(O)c1ccc(COc2ccccc2O)cc1 [Compound 2] | 48.788 ± 32.79 s | Mean Peak Plasma LMWH Concentration ± SD [1]: 1.038 ± 0.338 IU/ml; Mean Peak Serum sCT (pg/ml ± SD) (SE) ([3]; dose volume 1 (ml), 150 mg/kg): 628 ± 221 pg/mL and 449 ± 550 pg/mL and 320 ± 348 pg/mL |
| 7082 ± 3860 ng/mL | 0.63 ± 0.47 | 349 ± 348 pg/mL | – | – | O=C(O)CCCCCOc1ccccc1O [Compound 5] | – | Mean Peak APTT ± SD ([2]; PO (oral gavage), delivery agent compound 300 mg/kg, heparin 100 mg/kg, volume dose 3 ml): 135.7 ± 17.3 s; Mean Peak Serum [IFN] ± SD ([6]; delivery agent compound 50 mg/kg, IFN 0.5 mg/kg): 1.54 ± 0.26 ng/mL and 2.1 ± 0.95 ng/mL |
| 13270 ± 13430 ng/mL | – | 526 ± 415 pg/mL | – | – | CC(=O)c1ccccc1OCCCCCC(=O)O [Compound 11] | 39.53 ± 8.25 s | Mean Peak Plasma LMWH Concentration ± SD [1]: 0.91 ± 0.414 IU/ml; Mean Peak Serum [rhGH] ([7]; volume dose 1 ml): 35.4 ng/mL |
| 9500 ± 5490 ng/mL | 0.38 ± 0.15 | – | 6.0324 ± 2.8 ng/mL | – | O=C(O)CCCCCOc1ccccc1 [Compound 15] | – | Mean Peak Serum sCT (pg/ml ± SD) (SE) ([3]; dose volume 2 (ml)): 116 ± 88 pg/mL; Mean Peak Serum [INS] ± SD ([8]; delivery agent compound 100 mg/kg, insulin 3 mg/kg, 1 ml/kg): 1332.2 ± 1906.4 μU/ml |
| – | – | – | – | 460 ± 194 pg/mL | CNC(=O)c1ccccc1OCCCCCCCC(=O)O [Compound 31] | 47 ± 23.1 s | Mean Peak Plasma LMWH Concentration ± SD ([1]; 50 mg/kg): 0.47 ± 0.287 IU/ml and 0.47 ± 0.332 IU/ml; Mean Peak Serum [INS] ± SD [8, 13]: 21.26 ± 6.22 μU/ml |
| – | – | – | – | 538 ± 328 pg/mL | CC(C)NC(=O)c1ccccc1OCCCCCCCC(=O)O [Compound 34] | – | Mean Peak Serum sCT (pg/ml ± SD) (SE) ([3]; dose volume 1 (ml), 150 mg/kg): 103 ± 72 pg/mL and 137 ± 178 pg/mL |
| – | – | 50 ± 71 pg/mL | 1 ± 2.1 ng/mL and 1.206 ng/mL | – | O=C(O)CCCCCCCOc1cccc(O)c1 [Compound 43] | – | Mean Ratio of AUC for insulin + compound versus AUC for insulin alone [10]: 1.44; AUC (Total AUC(0→∞)) of daptomycin [4]: 4555* μg-min/mL and 2895* μg-min/mL and 2820* μg-min/mL |
| – | 0.56 ± 0.39 | 62 ± 99 pg/mL | 1.1 ± 0.85 ng/mL | – | O=C(O)CCCCCCCOc1ccc(O)cc1 [Compound 47, (4-hydroxyphenyl)-8-oxyoctanoic acid] | 370.3 ± 97.8 s | Mean Peak serum [cromolyn] ± SD (SE) ([5]; volume dose 2 ml/kg): 0.55 ± 0.12; Mean Ratio of AUC for insulin + compound versus AUC for insulin alone [10]: 0.63; Mean Peak Serum [rhGH] ([7]; volume dose 2 ml): 9.9 ± 22.1 ng/mL |
| – | 0.54 ± 0.39 and 0.57 ± 0.36 | – | – | – | O=Cc1ccccc1OCCCCCCCC(=O)O [Compound 61] | – | Mean Peak serum [cromolyn] ± SD (SE) ([5]; volume dose 2 ml/kg): 0.39 ± 0.21; Mean Peak Serum [INS] ± SD ([8]; delivery agent compound 200 mg/kg, insulin 0.5 mg/kg, 1 ml/kg): 58.99 ± 27.15 μU/ml |

| Structure (SMILES) | Mean plasma Cmax [daptomycin] ± SD [4] | Mean Peak serum [cromolyn] ± SD (SE) ([5]; volume dose 1 ml/kg) | Mean Peak Serum sCT (pg/ml ± SD) (SE) ([3]; dose volume 1 (ml)) | Mean Peak Serum [IFN] ± SD [6, 12] | Mean Peak Serum [PTH] (pg/mL) ± SD [9] | Mean Peak APTT ± SD [2, 11] | further results |
| --- | --- | --- | --- | --- | --- | --- | --- |
| CCNC(=O)c1ccccc1OCCCCCCCC(=O)O [Compound 33, 8-(2-(N-ethylbenzamide)oxy)octanoic acid] | – | – | 96 ± 209 pg/mL | – | 837 ± 347 pg/mL | – | Mean Peak Serum [rhGH] ([7]; volume dose 1 ml): 10.1 ng/mL and 6.9 ng/mL; Mean Peak Serum [INS] ± SD [8, 13]: 58.13 ± 52.86 μU/ml |
